From ChEMBL document CHEMBL4007507 (J Med Chem, 2017)
pIC50: −log10 of the molar value. The source made the active and inactive calls. The rule behind the calls is not given here.

Test system: not listed separately
Assay: in vivo
Conditions: rat, po, 25 mg/kg

Cmax [ng/mL]	Structure (SMILES)
1550	O=C(O)c1ccc(NC(=O)[C@@H]2NC3(CCCCC3)[C@@]3(C(=O)Nc4cc(Cl)ccc43)[C@H]2c2cccc(Cl)c2F)cc1
968	CC1(C)CCC2(CC1)N[C@@H](C(=O)Nc1ccc(C(=O)O)cc1)[C@H](c1cccc(Cl)c1F)[C@]21C(=O)Nc2cc(Cl)ccc21

Test system: not listed separately
Assay: in vivo
Conditions: rat, iv, 10 mg/kg

Structure (SMILES)	AUC [ng·h/mL]
O=C(NC12CCC(C(=O)O)(CC1)CC2)[C@@H]1NC2(CCCCC2)[C@@]2(C(=O)Nc3cc(Cl)ccc32)[C@H]1c1cccc(Cl)c1F	82200
CN1[C@@H](C(=O)NC23CCC(C(=O)O)(CC2)CC3)[C@H](c2cccc(Cl)c2F)[C@]2(C(=O)Nc3cc(Cl)ccc32)C12CCCCC2	28800
CC1(C)CCC2(CC1)N[C@@H](C(=O)Nc1ccc(C(=O)O)cc1)[C@H](c1cccc(Cl)c1F)[C@]21C(=O)Nc2cc(Cl)ccc21	14800

The remaining lines, values ahead:

AUC [ng·h/mL]	Structure (SMILES)
38300	CCN1[C@@H](C(=O)NC23CCC(C(=O)O)(CC2)CC3)[C@H](c2cccc(Cl)c2F)[C@]2(C(=O)Nc3cc(Cl)ccc32)C12CCCCC2 [ALRIZOMADLIN]
8630	O=C(O)c1ccc(NC(=O)[C@@H]2NC3(CCCCC3)[C@@]3(C(=O)Nc4cc(Cl)ccc43)[C@H]2c2cccc(Cl)c2F)cc1

Test system: SJSA-1
Assay: not given
Conditions: Homo sapiens

Structure (SMILES)	TGI
CC1(C)CCC2(CC1)N[C@@H](C(=O)Nc1ccc(C(=O)O)cc1)[C@H](c1cccc(Cl)c1F)[C@]21C(=O)Nc2cc(Cl)ccc21	Dose-dependent effect

Test system: RS4-11
Assay: cells
Conditions: Homo sapiens

pIC50	Structure (SMILES)
7.21	O=C(NC12CCC(C(=O)O)(CC1)CC2)[C@@H]1NC2(CCCCC2)[C@@]2(C(=O)Nc3cc(Cl)ccc32)[C@H]1c1cccc(Cl)c1F

Test system: SJSA-1
Assay: cells
Conditions: Homo sapiens

Structure (SMILES)	pIC50
O=C(O)c1cccc(NC(=O)[C@@H]2NC3(CCCCC3)[C@@]3(C(=O)Nc4cc(Cl)ccc43)[C@H]2c2cccc(Cl)c2F)c1	6.12
O=C(NC12CCC(C(=O)O)(CC1)CC2)[C@@H]1NC2(CCCCC2)[C@@]2(C(=O)Nc3cc(Cl)ccc32)[C@H]1c1cccc(Cl)c1F	7.05
CC1(C)CCC2(CC1)N[C@@H](C(=O)Nc1ccc(C(=O)O)cc1)[C@H](c1cccc(Cl)c1F)[C@]21C(=O)Nc2cc(Cl)ccc21	7.89

Continued, values first:

pIC50	Structure (SMILES)
5.21	O=C(O)c1ccc(NC(=O)[C@@H]2NC3(CCCCC3)[C@@]3(C(=O)Nc4cc(Cl)ccc43)[C@H]2c2cccc(Cl)c2F)o1
7.21	COc1cc(C(=O)O)ccc1NC(=O)[C@@H]1NC2(CCCCC2)[C@@]2(C(=O)Nc3cc(Cl)ccc32)[C@H]1c1cccc(Cl)c1F
5.76	O=C(N[C@H]1CC[C@@H](C(=O)O)CC1)[C@@H]1NC2(CCCCC2)[C@@]2(C(=O)Nc3cc(Cl)ccc32)[C@H]1c1cccc(Cl)c1F
7.22	CCN1[C@@H](C(=O)NC23CCC(C(=O)O)(CC2)CC3)[C@H](c2cccc(Cl)c2F)[C@]2(C(=O)Nc3cc(Cl)ccc32)C12CCCCC2 [ALRIZOMADLIN]

Test system: not listed separately
Assay: in vivo
Conditions: rat, iv, 10 mg/kg
Remark: another data set of the same source

Structure (SMILES)	clearance [mL/min/kg]
O=C(NC12CCC(C(=O)O)(CC1)CC2)[C@@H]1NC2(CCCCC2)[C@@]2(C(=O)Nc3cc(Cl)ccc32)[C@H]1c1cccc(Cl)c1F	1.98
CN1[C@@H](C(=O)NC23CCC(C(=O)O)(CC2)CC3)[C@H](c2cccc(Cl)c2F)[C@]2(C(=O)Nc3cc(Cl)ccc32)C12CCCCC2	5.87
CC1(C)CCC2(CC1)N[C@@H](C(=O)Nc1ccc(C(=O)O)cc1)[C@H](c1cccc(Cl)c1F)[C@]21C(=O)Nc2cc(Cl)ccc21	11.5

Other lines, results leading:

clearance [mL/min/kg]	Structure (SMILES)
4.28	CCN1[C@@H](C(=O)NC23CCC(C(=O)O)(CC2)CC3)[C@H](c2cccc(Cl)c2F)[C@]2(C(=O)Nc3cc(Cl)ccc32)C12CCCCC2 [ALRIZOMADLIN]
19.3	O=C(O)c1ccc(NC(=O)[C@@H]2NC3(CCCCC3)[C@@]3(C(=O)Nc4cc(Cl)ccc43)[C@H]2c2cccc(Cl)c2F)cc1

Test system: SAOS-2
Assay: cells
Conditions: Homo sapiens

pIC50	Structure (SMILES)
4.57	O=C(NC12CCC(C(=O)O)(CC1)CC2)[C@@H]1NC2(CCCCC2)[C@@]2(C(=O)Nc3cc(Cl)ccc32)[C@H]1c1cccc(Cl)c1F
4.64	CCN1[C@@H](C(=O)NC23CCC(C(=O)O)(CC2)CC3)[C@H](c2cccc(Cl)c2F)[C@]2(C(=O)Nc3cc(Cl)ccc32)C12CCCCC2 [ALRIZOMADLIN]

Test system: not listed separately
Assay: in vivo
Conditions: rat, po, 25 mg/kg
Remark: another data set of the same source

Structure (SMILES)	AUC [ng·h/mL]
CN1[C@@H](C(=O)NC23CCC(C(=O)O)(CC2)CC3)[C@H](c2cccc(Cl)c2F)[C@]2(C(=O)Nc3cc(Cl)ccc32)C12CCCCC2	35200
CC1(C)CCC2(CC1)N[C@@H](C(=O)Nc1ccc(C(=O)O)cc1)[C@H](c1cccc(Cl)c1F)[C@]21C(=O)Nc2cc(Cl)ccc21	10200

The next lines start with the values.

AUC [ng·h/mL]	Structure (SMILES)
39100	CCN1[C@@H](C(=O)NC23CCC(C(=O)O)(CC2)CC3)[C@H](c2cccc(Cl)c2F)[C@]2(C(=O)Nc3cc(Cl)ccc32)C12CCCCC2 [ALRIZOMADLIN]
6800	O=C(O)c1ccc(NC(=O)[C@@H]2NC3(CCCCC3)[C@@]3(C(=O)Nc4cc(Cl)ccc43)[C@H]2c2cccc(Cl)c2F)cc1

Test system: LNCaP
Assay: cells
Conditions: Homo sapiens

pIC50	Structure (SMILES)
7.44	O=C(NC12CCC(C(=O)O)(CC1)CC2)[C@@H]1NC2(CCCCC2)[C@@]2(C(=O)Nc3cc(Cl)ccc32)[C@H]1c1cccc(Cl)c1F
7.74	CCN1[C@@H](C(=O)NC23CCC(C(=O)O)(CC2)CC3)[C@H](c2cccc(Cl)c2F)[C@]2(C(=O)Nc3cc(Cl)ccc32)C12CCCCC2 [ALRIZOMADLIN]

Test system: RS4-11
Assay: not given
Conditions: Homo sapiens

Structure (SMILES)	TGI
CCN1[C@@H](C(=O)NC23CCC(C(=O)O)(CC2)CC3)[C@H](c2cccc(Cl)c2F)[C@]2(C(=O)Nc3cc(Cl)ccc32)C12CCCCC2 [ALRIZOMADLIN]	Dose-dependent effect

Test system: HCT-116
Assay: cells
Conditions: Homo sapiens

pIC50	Structure (SMILES)
6.86	O=C(NC12CCC(C(=O)O)(CC1)CC2)[C@@H]1NC2(CCCCC2)[C@@]2(C(=O)Nc3cc(Cl)ccc32)[C@H]1c1cccc(Cl)c1F
6.98	CCN1[C@@H](C(=O)NC23CCC(C(=O)O)(CC2)CC3)[C@H](c2cccc(Cl)c2F)[C@]2(C(=O)Nc3cc(Cl)ccc32)C12CCCCC2 [ALRIZOMADLIN]

Test system: SJSA-1
Assay: not given
Conditions: Homo sapiens, 100 mg/kg

Structure (SMILES)	TGI
O=C(NC12CCC(C(=O)O)(CC1)CC2)[C@@H]1NC2(CCCCC2)[C@@]2(C(=O)Nc3cc(Cl)ccc32)[C@H]1c1cccc(Cl)c1F	Active

Test system: PC-3
Assay: cells
Conditions: Homo sapiens

pIC50	Structure (SMILES)
4.91	O=C(NC12CCC(C(=O)O)(CC1)CC2)[C@@H]1NC2(CCCCC2)[C@@]2(C(=O)Nc3cc(Cl)ccc32)[C@H]1c1cccc(Cl)c1F
4.66	CCN1[C@@H](C(=O)NC23CCC(C(=O)O)(CC2)CC3)[C@H](c2cccc(Cl)c2F)[C@]2(C(=O)Nc3cc(Cl)ccc32)C12CCCCC2 [ALRIZOMADLIN]

Test system: not listed separately
Assay: in vivo
Conditions: rat, iv, 10 mg/kg
Remark: another data set of the same source

Structure (SMILES)	Vd [L/kg]
O=C(NC12CCC(C(=O)O)(CC1)CC2)[C@@H]1NC2(CCCCC2)[C@@]2(C(=O)Nc3cc(Cl)ccc32)[C@H]1c1cccc(Cl)c1F	0.734
CN1[C@@H](C(=O)NC23CCC(C(=O)O)(CC2)CC3)[C@H](c2cccc(Cl)c2F)[C@]2(C(=O)Nc3cc(Cl)ccc32)C12CCCCC2	1.1
CC1(C)CCC2(CC1)N[C@@H](C(=O)Nc1ccc(C(=O)O)cc1)[C@H](c1cccc(Cl)c1F)[C@]21C(=O)Nc2cc(Cl)ccc21	2.45

More lines, now with the values ahead:

Vd [L/kg]	Structure (SMILES)
1.25	CCN1[C@@H](C(=O)NC23CCC(C(=O)O)(CC2)CC3)[C@H](c2cccc(Cl)c2F)[C@]2(C(=O)Nc3cc(Cl)ccc32)C12CCCCC2 [ALRIZOMADLIN]
2.14	O=C(O)c1ccc(NC(=O)[C@@H]2NC3(CCCCC3)[C@@]3(C(=O)Nc4cc(Cl)ccc43)[C@H]2c2cccc(Cl)c2F)cc1

Test system: SJSA-1
Assay: not given
Conditions: Homo sapiens, 30 mg/kg

Structure (SMILES)	TGI
CCN1[C@@H](C(=O)NC23CCC(C(=O)O)(CC2)CC3)[C@H](c2cccc(Cl)c2F)[C@]2(C(=O)Nc3cc(Cl)ccc32)C12CCCCC2 [ALRIZOMADLIN]	Active
CN1[C@@H](C(=O)NC23CCC(C(=O)O)(CC2)CC3)[C@H](c2cccc(Cl)c2F)[C@]2(C(=O)Nc3cc(Cl)ccc32)C12CCCCC2	Active

Test system: not listed separately
Assay: in vivo
Conditions: rat, po, 25 mg/kg
Remark: another data set of the same source

Structure (SMILES)	half-life [h]
O=C(NC12CCC(C(=O)O)(CC1)CC2)[C@@H]1NC2(CCCCC2)[C@@]2(C(=O)Nc3cc(Cl)ccc32)[C@H]1c1cccc(Cl)c1F	4.3
CN1[C@@H](C(=O)NC23CCC(C(=O)O)(CC2)CC3)[C@H](c2cccc(Cl)c2F)[C@]2(C(=O)Nc3cc(Cl)ccc32)C12CCCCC2	3.9
CC1(C)CCC2(CC1)N[C@@H](C(=O)Nc1ccc(C(=O)O)cc1)[C@H](c1cccc(Cl)c1F)[C@]21C(=O)Nc2cc(Cl)ccc21	4.5

The next lines start with the values.

half-life [h]	Structure (SMILES)
4.6	CCN1[C@@H](C(=O)NC23CCC(C(=O)O)(CC2)CC3)[C@H](c2cccc(Cl)c2F)[C@]2(C(=O)Nc3cc(Cl)ccc32)C12CCCCC2 [ALRIZOMADLIN]
4	O=C(O)c1ccc(NC(=O)[C@@H]2NC3(CCCCC3)[C@@]3(C(=O)Nc4cc(Cl)ccc43)[C@H]2c2cccc(Cl)c2F)cc1

Test system: SJSA-1
Assay: not given
Conditions: Homo sapiens, 50 mg/kg

Structure (SMILES)	TGI
O=C(NC12CCC(C(=O)O)(CC1)CC2)[C@@H]1NC2(CCCCC2)[C@@]2(C(=O)Nc3cc(Cl)ccc32)[C@H]1c1cccc(Cl)c1F	Active
O=C(O)c1ccc(NC(=O)[C@@H]2NC3(CCCCC3)[C@@]3(C(=O)Nc4cc(Cl)ccc43)[C@H]2c2cccc(Cl)c2F)cc1	Active
CC1(C)CCC2(CC1)N[C@@H](C(=O)Nc1ccc(C(=O)O)cc1)[C@H](c1cccc(Cl)c1F)[C@]21C(=O)Nc2cc(Cl)ccc21	Active

Test system: HCT-116
Assay: cells
Conditions: Homo sapiens
Remark: another data set of the same source

pIC50	Structure (SMILES)
4.85	O=C(NC12CCC(C(=O)O)(CC1)CC2)[C@@H]1NC2(CCCCC2)[C@@]2(C(=O)Nc3cc(Cl)ccc32)[C@H]1c1cccc(Cl)c1F
5.10	CCN1[C@@H](C(=O)NC23CCC(C(=O)O)(CC2)CC3)[C@H](c2cccc(Cl)c2F)[C@]2(C(=O)Nc3cc(Cl)ccc32)C12CCCCC2 [ALRIZOMADLIN]
